Results from PubChem BioAssay (NCI).
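The compound was tested at five concentrations on cells cultured in 96-well plates, with a 48-hour exposure period. GI50 marks 50% less growth. Definition used: TGI = concentration required for complete inhibition of growth.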

Legend:
Experiment in all cases: NCI tumour cell line growth inhibition, 48 h
[1] = test system: NCI/ADR-RES ovarian
[2] = test system: M14 melanoma
[3] = test system: KM12 colon
[4] = test system: SK-MEL-2 melanoma
[5] = test system: HS 578T breast
[6] = test system: SN12C renal
[7] = test system: DU-145 prostate
[8] = test system: RPMI-8226 leukemia
[9] = test system: SK-MEL-5 melanoma
[10] = test system: SW-620 colon

SMILES | GI50 [1] [µM] | TGI [1] [µM] | GI50 [2] [µM] | TGI [2] [µM] | GI50 [3] [µM] | TGI [3] [µM] | GI50 [4] [µM] | TGI [4] [µM] | GI50 [5] [µM] | TGI [5] [µM] | GI50 [6] [µM] | TGI [6] [µM] | GI50 [7] [µM] | TGI [7] [µM] | GI50 [8] [µM] | TGI [8] [µM] | GI50 [9] [µM] | TGI [9] [µM] | GI50 [10] [µM] | TGI [10] [µM]
COc1ccc(-n2c(C)nc3c(c(C)nn3-c3ccccc3)c2=O)cc1 | 0.0534 | > 100 | 0.0491 | > 100 | 0.0532 | > 100 | 0.516 | > 100 | 0.0528 | > 100 | 0.442 | > 100 | 0.29 | > 100 | 0.108 | > 33.6 | 0.0615 | 4.6 | 0.0415 | > 100
CC1(C)Cc2c(Br)c(Br)c(Br)c(OCC(O)CN3CCOCC3)c2O1 (stereo not given) | 16.1 | 34.7 | 17.9 | 37.1 | 13.4 | 28.9 | 7.64 | 23.8 | 17.2 | 47.4 | 17.4 | 33.5 | 13.4 | 26.2 | 3.82 | 18.7 | 10.2 | 22 | 15.6 | 29.8
Oc1ccc(CN(Cc2ccc(C(F)(F)F)cc2)Cc2ccc(O)c3ncccc23)c2cccnc12 | < 0.01 | > 100 | 0.0326 | 2.17 | 0.0415 | > 100 | 0.0232 | 0.0804 | 0.0438 | > 100 | 0.0201 | > 100 | 0.0338 | > 100 | 0.0278 | > 100 | 0.0278 | 0.16 | 0.0251 | > 100
COc1ccc(-c2cc(-c3nnc(SCC(=O)Nc4ccc(C(C)=O)cc4)o3)c3ccccc3n2)cc1 | > 100 | > 100 | > 100 | > 100 | > 100 | > 100 | 30.4 | > 100 | 14.2 | 92.3 | > 100 | > 100 | > 100 | > 100 | > 100 | > 100 | > 100 | > 100 | > 100 | > 100
NC(=O)NCCSC1CCCCC1O (stereo not given) | – | > 100 | – | > 100 | – | > 100 | – | > 100 | – | > 100 | – | > 100 | – | > 100 | – | > 100 | – | > 100 | – | > 100
Cc1cc(C)c2c(N)c3cccc(C)c3nc2n1 | 1.54 | 3.99 | 1.58 | 3.24 | 3.32 | 9.69 | 2.03 | 4.97 | 3.25 | 25.1 | 1.61 | 11.2 | 2.33 | 6.5 | 2.14 | 6.78 | 1.44 | 2.74 | 1.94 | 9.29
COc1ccc(-c2ccccc2)cc1-c1c(Nc2cc(Cl)cc(Cl)c2O)c(=O)c1=O | 1.38 | > 50 | 1.72 | > 50 | 1.53 | > 50 | 1.77 | > 50 | 1.25 | 4.55 | 1.48 | > 50 | 1.7 | > 50 | 0.957 | 2.71 | 0.97 | 2.25 | 1.7 | > 50
CCN1CCC(CC(=O)Nc2n[nH]c3nc(-c4cccs4)c(Br)cc23)CC1 | > 20.7 | > 25 | 6.88 | 14.6 | 5.81 | 13.8 | 6.24 | 11.4 | 12.3 | > 25 | 9.51 | > 25 | 8.5 | > 25 | 9.42 | 24.8 | 6.37 | > 14.6 | 11.4 | > 25
c1cncc(CNc2ncn[nH]2)c1 | – | > 100 | – | > 100 | – | > 100 | – | > 100 | – | > 100 | – | > 100 | – | > 100 | – | > 100 | – | > 100 | – | > 100
COc1cc2c3c(n(C)c(=O)c2cc1OC)-c1cc2c(cc1/C3=C/[C@H](N)CCCCN)OCO2 | 5.19 | > 27.1 | 1.59 | 4.55 | 2.07 | > 58.5 | 2.68 | 8.98 | 2.52 | 17.4 | 0.662 | 6.39 | 1.07 | 50 | 1.59 | > 61.5 | 1.49 | 7.64 | 0.595 | > 37.9
